“Also recorded” adds a separate entry of the source. Bridge positions count the residues as written; N and C are the ends. Square brackets hold non-standard residues; d marks the D form. Peptide text beside a SMILES is read from it.
How the values were obtained:
perfused rat pancreas [1] = experiment: Rat pancreas perfusion, glucagon output; parameters: species or system rat (Wistar)
Protocol: (§1) Non-fasted rats were anesthetized by a subcutaneous injection of a balanced mix of hypnorm and midazolam (0.3 mL/100 g body weight). Rats were placed on a heated operating table (37 °C) and the abdomen were opened. Blood vessels were tied off before removing the large and small intestines, the stomach, and the spleen. Then, the kidneys were ligated. […] The perfusion buffer was a modified Krebs-Ringer bicarbonate buffer with 5% (w/v) dextran T-70 (Pharmacosmos, Holbaek, Denmark), 0.1% (w/v) BSA (fraction V), 3.5 mM glucose and 3 mM vamin (Fresenius Kabi, Copenhagen, Denmark), pH adjusted to 7.4. […] Once perfusion of the pancreas was established, a catheter was inserted in the vena portae to collect the venous effluent and the rat was sacrificed by perforation of the diaphragm. After a 30-minute equilibration period, samples were collected every minute for the duration of the protocol. […] 10 mM L-Arginine was used as a positive control. Collected samples were immediately transferred on ice and stored at −20 °C until hormone analysis. Glucagon, insulin, and somatostatin concentrations in venous effluents were quantified by use of validated in-house radioimmunoassays (RIA) as previously described[36] (see below). Statistical analysis were performed where appropriate using one-way analysis of variance (ANOVA) with Dunnett’s post-test. Statistical significance was taken as p < 0.05.
(§2) Glucagon concentration in perfusion samples were measured by a validated in-house RIAs using the 4305 antibody, which reacts with the C-terminal epitope of glucagon[36] and no other cleavage products of pro-glucagon. Insulin concentrations were measured with the 2006 antibody, which measures all isoforms of rat insulin. […] Assay sensitivity was <1 pmol/L ( < 5 pmol/L for insulin detection), allowing reliable measurements of increments of at least 25 fmol/min.
(§3) Data analysis were performed in GraphPad Prism (v.9.4.1). Statistical analysis were performed using two-way repeated measure analysis of variance (ANOVA) with Šidák test for isolated islets glucagon secretion and one-way repeated measure ANOVA with Dunnett's test for rat pancreas perfusion experiments. Statistical significance was taken as p < 0.05.

human SSTR2 (Gi2) = target: T1, human SSTR2 (Gi2) (Homo sapiens, UniProt P30874); experiment: G protein activation (BRET dissociation) assay, Gi2 at hSSTR2; type: cell-based;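 for Emax ± S.E.M.: percent of the maximal response to the reference somatostatin agonist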
T1 construct: host or cells: HEK293T cells
T1 sequence (P30874 whole entry): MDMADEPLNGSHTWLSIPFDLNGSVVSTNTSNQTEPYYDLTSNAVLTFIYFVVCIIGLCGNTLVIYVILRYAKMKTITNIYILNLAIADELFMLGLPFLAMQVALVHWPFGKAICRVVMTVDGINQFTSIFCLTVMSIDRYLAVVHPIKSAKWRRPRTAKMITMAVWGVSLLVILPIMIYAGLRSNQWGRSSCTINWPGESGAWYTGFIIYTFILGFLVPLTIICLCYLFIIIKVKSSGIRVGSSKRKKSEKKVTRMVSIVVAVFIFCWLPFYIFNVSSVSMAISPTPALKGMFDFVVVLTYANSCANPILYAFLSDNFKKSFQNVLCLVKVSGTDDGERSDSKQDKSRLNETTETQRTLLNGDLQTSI
Protocol: (§5) HEK293T cells were seeded onto 6-well plates at a density of 750,000 cells/well. […] 16 to 24 hours post-transfection, HEK293T cells were seeded onto white 96 well plate (PerkinElmer) coated with poly-L-lysine (PLL) at a density of 40,000 cells/well and were allowed to grow overnight. On the day of assay, cells were washed once with phosphate-based saline (PBS) and 80 µL of assay buffer which composed of PBS with 0.5 mM MgCl2 and 0.1% glucose, pH 7.4, were added onto each well. 10 µL of Nluc luciferase substrate furimazine (Promega) were added onto each well and incubated for 3 minutes.
(§6) The net BRET ratio was determined by subtracting the BRET ratio of drugs with the BRET ratio of vehicle control. Net BRET ratio over time was then plotted using GraphPad Prism (v.9.4.1), and the area-under-curve of net BRET ratio over time course for each ligand concentration tested were then determined and plotted against log(concentration) of drugs tested. […] Concentration response curves were fitted with a 4-parameter logistic Eq. (1) using GraphPad Prism (v.9.4.1):1 Y=Emin+(Emax−Emin)/1+10^logEC50−X×Hillslope

Dr-sstr2b (GoA) = experiment: G protein dissociation assay, GoA at Dr-sstr2b; type: cell-based, zebrafish (Danio rerio)
Description: (§4) 3xHA-tagged human SSTR2 construct was obtained from cDNA.org (cDNA resource center, Bloomsburg PA, US). […] Kirill Martemyanov (University of Florida, US). Tango constructs for human SSTR1-5 were kind gifts from Prof. Bryan Roth (University of North Carolina, Chapel Hill, US) (Addgene kit # 1000000068). Tango constructs for fish Dr-sstr2a (sequence accession number: XP_005170178.1) and Dr-sstr2b (sequence accession number: XP_017210358.1) were custom-synthesized by Twist Biosciences using the Tango construct template as described in Kroeze et al., 2015[28]. 3xHA-tagged Dr-sstr2a and 3xHA tagged Dr-sstr2b constructs were inserted into pcDNA3.1 backbone. All DNA constructs were sequenced and confirmed prior to use.
Error bars represent means ± S.E.M. of n = 3 in technical duplicates.

human SSTR2 (Gi1) = target: T2, human SSTR2 (Gi1) (Homo sapiens, UniProt P30874); experiment: G protein activation (BRET dissociation) assay, Gi1 at hSSTR2; type: cell-based;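 for Emax ± S.E.M.: percent of the maximal response to the reference somatostatin agonist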
T2 construct: host or cells: HEK293T cells
T2 sequence (P30874 whole entry): as above
Protocol: as §5, §6

perfused rat pancreas [2] = experiment: Rat pancreas perfusion, insulin output; parameters: species or system rat (Wistar); conditions: for effect on insulin secretion: 0.1 nM, 1 nM and 10 nM, […] glucose, n = 5 rats; for Insulin output: Mean
Protocol: as §1, §2, §3

Dr-sstr2a = experiment: PRESTO-Tango β-arrestin recruitment assay, Dr-sstr2a; type: cell-based, zebrafish (Danio rerio); conditions: HTLA cells, listed as Consomatin pG1
Description: as §4
The assay was done as described in ref. [12].

isolated mouse islets = experiment: Glucagon secretion from isolated islets; type: cell-based, mouse (C57BL/6J); conditions: for Islet glucagon secretion: -9 log M peptide
Protocol: Female C57BL/6 J mice of 12–20 weeks were used for the islet secretion. Mice were killed by cervical dislocation and pancreatic islets were isolated as previously described. […] The islets were subsequently incubated with or without drugs in 10 mM glucose KRB for an hour. Supernatant from both incubations were collected. Total islet glucagon content was determined by acid-ethanol extraction. Both the supernatant and the acid-ethanol content were stored at −80 °C until further analysis. Glucagon in both supernatant and content were measured using U-plex metabolic 2-plex combo (mouse insulin and glucagon) kit (Meso Scale Diagnostic; catalog no: K15303K) according to manufacturer’s instruction.
as §3

perfused rat pancreas [3] = experiment: Rat pancreas perfusion, somatostatin output; parameters: species or system rat (Wistar); conditions: 0.1 nM, 1 nM and 10 nM, […] glucose, n = 10 rats
Protocol: Non-fasted rats were anesthetized by a subcutaneous injection of a balanced mix of hypnorm and midazolam (0.3 mL/100 g body weight). Rats were placed on a heated operating table (37 °C) and the abdomen were opened. Blood vessels were tied off before removing the large and small intestines, the stomach, and the spleen. Then, the kidneys were ligated. […] The perfusion buffer was a modified Krebs-Ringer bicarbonate buffer with 5% (w/v) dextran T-70 (Pharmacosmos, Holbaek, Denmark), 0.1% (w/v) BSA (fraction V), 3.5 mM glucose and 3 mM vamin (Fresenius Kabi, Copenhagen, Denmark), pH adjusted to 7.4. […] Once perfusion of the pancreas was established, a catheter was inserted in the vena portae to collect the venous effluent and the rat was sacrificed by perforation of the diaphragm. After a 30-minute equilibration period, samples were collected every minute for the duration of the protocol. […] Glucagon, insulin, and somatostatin concentrations in venous effluents were quantified by use of validated in-house radioimmunoassays (RIA) as previously described[36] […]
Glucagon concentration in perfusion samples were measured by a validated in-house RIAs using the 4305 antibody, which reacts with the C-terminal epitope of glucagon[36] and no other cleavage products of pro-glucagon. Insulin concentrations were measured with the 2006 antibody, which measures all isoforms of rat insulin. […]

human SSTR2 (GoA) = human SSTR2 (GoA) (Homo sapiens, UniProt P30874); experiment: G protein activation (BRET dissociation) assay, GoA at hSSTR2;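 for Emax: percent of the maximal response to the reference somatostatin agonist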
Sequence of human SSTR2 (GoA) (P30874 whole entry): as above
Protocol: as §5, §6

With CC(C)C[C@H](N)C(=O)N[C@@H](Cc1ccccc1)C(=O)N[C@H]1CSSC[C@@H](C(=O)N[C@@H](Cc2c[nH]c3ccccc23)C(=O)O)NC(=O)[C@H](CO)NC(=O)[C@H](CCCCN)NC(=O)[C@@H](Cc2c[nH]c3ccccc23)NC(=O)[C@H](Cc2ccccc2)NC1=O [pG1] (H-LFCF[dW]KSCW-OH; disulfide 3-8) as the molecule, how does the “suppression of glucagon secretion” value (perfused rat pancreas [1]; 0.1 nM, within 5 minute of application, […] glucose, n = 10 rats) read?
The value was 24%.

What about the “further suppression of glucagon secretion” value (perfused rat pancreas [1]; 1 nM, subsequent application, […] glucose, n = 10 rats) of the same molecule?
The value was 45%.

And the “glucagon level in words” value (perfused rat pancreas [1]; 10 nM, […] glucose)?
Its value is “drastically reduced the glucagon level close to null”.

What about the “recovery of glucagon level after washout” value (perfused rat pancreas [1]; after 0.1 nM, 15-minute washout, baseline 754.9 fmol/min) of the same molecule?
Its value is “failed to return to the average baseline level”.

And the Emax (human SSTR2 (Gi2))?
Its Emax is 91 ± 4.6%.

And the “Hill Slope” value (human SSTR2 (Gi2); Table S2, Gαi2)?
The value was 1.11 ± 0.22.

What about the “Span ± S.E.M.” value (human SSTR2 (Gi2); Table S2, Gαi2) of the same molecule?
Its value is 83.42 ± 5.67.

What about the EC50 (human SSTR2 (Gi2); Table S2, Gαi2, HEK293T, means ± S.E.M.) of the same molecule?
The EC50 was 1.35 nM.

And the “GoA dissociation at Dr-sstr2b in words” value (Dr-sstr2b (GoA); HEK293T cells)?
Its value is “only induced GoA dissociation at the Dr-sstr2b but not the Dr-sstr2a”.

What about the “Hill Slope” value (Dr-sstr2b (GoA); Table S5, GoA) of the same molecule?
The value was 0.48 ± 0.10.

And the “Span ± S.E.M.” value (Dr-sstr2b (GoA); Table S5, GoA)?
Its value is 100.43 ± 11.98.

And the “Emax ± S.E.M.” value (Dr-sstr2b (GoA); Table S5, GoA, % of maximal response relative to SS-14)?
Its value is 105.52 ± 10.37%.

And the “pEC50 ± S.E.M.” value (Dr-sstr2b (GoA); Table S5, GoA, HEK293T)?
Its value is 7.95 ± 0.19.

And the Emax (human SSTR2 (Gi1))?
Its Emax is 95.6 ± 8.52%.

And the “Hill Slope” value (human SSTR2 (Gi1); Table S2, Gαi1)?
Its value is 0.81 ± 0.28.

And the “Span ± S.E.M.” value (human SSTR2 (Gi1); Table S2, Gαi1)?
The value was 87.89 ± 11.1.

What about the EC50 (human SSTR2 (Gi1); Table S2, Gαi1, HEK293T, means ± S.E.M.) of the same molecule?
The EC50 was 6.46 nM.

What about the “effect on insulin secretion” value (perfused rat pancreas [2]) of the same molecule?
The value was “did not affect insulin and somatostatin output at low glucose (3.5 mM)”.

What about the “effect on insulin secretion” value (perfused rat pancreas [2]; listed as Consomatin pG1) of the same molecule?
The value was “no effect on somatostatin or insulin secretion in 3.5 mM glucose”.

What about the Insulin output (perfused rat pancreas [2]; 0.1nM, replicate 1) of the same molecule?
The Insulin output was 35.5.

And the Insulin output (perfused rat pancreas [2]; 0.1nM, replicate 2)?
The Insulin output was 10.

What about the Insulin output (perfused rat pancreas [2]; 0.1nM, replicate 3) of the same molecule?
Its Insulin output is 25.5.

And the Insulin output (perfused rat pancreas [2]; 0.1nM, replicate 4)?
The Insulin output was 51.

And the Insulin output (perfused rat pancreas [2]; 0.1nM, replicate 5)?
The Insulin output was 14.

What about the Insulin output (perfused rat pancreas [2]; 1nM, replicate 1) of the same molecule?
Its Insulin output is 15.5556.

And the Insulin output (perfused rat pancreas [2]; 1nM, replicate 2)?
Its Insulin output is 29.

What about the Insulin output (perfused rat pancreas [2]; 1nM, replicate 3) of the same molecule?
The Insulin output was 40.

And the Insulin output (perfused rat pancreas [2]; 1nM, replicate 4)?
Its Insulin output is 74.5.

And the Insulin output (perfused rat pancreas [2]; 1nM, replicate 5)?
Its Insulin output is 0.

And the Insulin output (perfused rat pancreas [2]; 10nM, replicate 1)?
Its Insulin output is 25.

And the Insulin output (perfused rat pancreas [2]; 10nM, replicate 2)?
Its Insulin output is 0.

And the Insulin output (perfused rat pancreas [2]; 10nM, replicate 3)?
Its Insulin output is 15.

And the Insulin output (perfused rat pancreas [2]; 10nM, replicate 4)?
The Insulin output was 35.

And the Insulin output (perfused rat pancreas [2]; 10nM, replicate 5)?
Its Insulin output is 11.5.

What about the “activation of Dr-sstr2a in words” value (Dr-sstr2a) of the same molecule?
The value was “very low potency; also recorded: activates the zebrafish Dr-sstr2b (n = 3) but not Dr-sstr2a”.

What about the “decrease of glucagon secretion” value (isolated mouse islets; 1 nM peptide, 1 mM glucose, 1 hour, p < 0.01, n = 9) of the same molecule?
Its value is ~ 33%.

And the “effect on glucagon secretion in high glucose” value (isolated mouse islets; 1 nM peptide, 10 mM glucose)?
Its value is “Neither SS-14 nor Consomatin pG1 affected glucagon secretion in high glucose conditions”.

And the Islet glucagon secretion (isolated mouse islets; 1mM glucose, replicate 1)?
Its Islet glucagon secretion is 0.1528.

And the Islet glucagon secretion (isolated mouse islets; 1mM glucose, replicate 2)?
Its Islet glucagon secretion is 0.1799.

What about the Islet glucagon secretion (isolated mouse islets; 1mM glucose, replicate 3) of the same molecule?
The Islet glucagon secretion was 0.229.

What about the Islet glucagon secretion (isolated mouse islets; 1mM glucose, replicate 4) of the same molecule?
Its Islet glucagon secretion is 0.1754.

What about the Islet glucagon secretion (isolated mouse islets; 1mM glucose, replicate 5) of the same molecule?
Its Islet glucagon secretion is 0.2817.

And the Islet glucagon secretion (isolated mouse islets; 1mM glucose, replicate 6)?
Its Islet glucagon secretion is 0.2671.

What about the Islet glucagon secretion (isolated mouse islets; 1mM glucose, replicate 7) of the same molecule?
The Islet glucagon secretion was 0.309.

What about the Islet glucagon secretion (isolated mouse islets; 1mM glucose, replicate 8) of the same molecule?
The Islet glucagon secretion was 0.2377.

And the Islet glucagon secretion (isolated mouse islets; 1mM glucose, replicate 9)?
Its Islet glucagon secretion is 0.1574.

And the Islet glucagon secretion (isolated mouse islets; 10mM glucose, replicate 1)?
Its Islet glucagon secretion is 0.1057.

What about the Islet glucagon secretion (isolated mouse islets; 10mM glucose, replicate 2) of the same molecule?
The Islet glucagon secretion was 0.1136.

And the Islet glucagon secretion (isolated mouse islets; 10mM glucose, replicate 3)?
Its Islet glucagon secretion is 0.1366.

And the Islet glucagon secretion (isolated mouse islets; 10mM glucose, replicate 4)?
The Islet glucagon secretion was 0.1392.

What about the Islet glucagon secretion (isolated mouse islets; 10mM glucose, replicate 5) of the same molecule?
Its Islet glucagon secretion is 0.1398.

And the Islet glucagon secretion (isolated mouse islets; 10mM glucose, replicate 6)?
Its Islet glucagon secretion is 0.1241.

And the Islet glucagon secretion (isolated mouse islets; 10mM glucose, replicate 7)?
The Islet glucagon secretion was 0.1488.

And the Islet glucagon secretion (isolated mouse islets; 10mM glucose, replicate 8)?
The Islet glucagon secretion was 0.2037.

And the Islet glucagon secretion (isolated mouse islets; 10mM glucose, replicate 9)?
Its Islet glucagon secretion is 0.1689.

What about the “effect on somatostatin secretion” value (perfused rat pancreas [3]) of the same molecule?
The value was “did not affect insulin and somatostatin output at low glucose (3.5 mM)”.

What about the “effect on somatostatin secretion” value (perfused rat pancreas [3]; listed as Consomatin pG1) of the same molecule?
Its value is “no effect on somatostatin or insulin secretion in 3.5 mM glucose”.

What about the EC50 (human SSTR2 (GoA)) of the same molecule?
Its EC50 is 5.13 nM.

And the “Hill Slope” value (human SSTR2 (GoA); Table S2, GαoA)?
The value was 1.04 ± 0.25.

What about the “Span ± S.E.M.” value (human SSTR2 (GoA); Table S2, GαoA) of the same molecule?
The value was 97.45 ± 6.80.

What about the “GoA activation/dissociation in words” value (human SSTR2 (GoA); hSSTR2, HEK293T cells) of the same molecule?
Its value is “most potent at dissociating GoA protein among all Gi/o proteins tested”.

What about the Emax (human SSTR2 (GoA); read-out: Emax ± S.E.M.) of the same molecule?
The Emax was 97.9 ± 4.11%.
